Patent US20080039444A1, “COMPOUNDS” (GLAXO GROUP LIMITED, priority 2006, published 2008)
Structures can show the parent of a compound that is named as a salt. Where two headings read alike, the source gives them in different places.

Key:
human H1 receptor [1] = target: T1, human H1 receptor (Homo sapiens, UniProt P35367); assay: Histamine H1 functional antagonist assay: antagonist duration after washout; assay type: cell-based; conditions: at one or more time points
T1 construct: expressed in transfected cells
Method: (§1) The human H1 receptor is cloned using known procedures described in the literature [Biochem. Biophys. Res. Commun., 201(2):894 (1994)]. Chinese hamster ovary (CHO) cells stably expressing the human H1 receptor are generated according to known procedures described in the literature [Br. J. Pharmacol., 117(6):1071 (1996)].
(§2) Histamine H1 functional antagonist assay: Determination of antagonist pA2 and duration
To determine the antagonist duration, cells are cultured overnight in non-coated black-walled clear bottom 96-well tissue culture plates, are washed with PBS and are incubated with a concentration of antagonist chosen to give an approximate DR in the range 30-300. Following the 30 min antagonist incubation period, the cells are washed two or three times with 200 μl of PBS and then 100 μl Tyrodes buffer is added to each well to initiate antagonist dissociation. Following incubation for predetermined times, typically 30-270 min at 37° C., the cells are then washed again with 200 μl PBS and are incubated with 100 μl Tyrodes buffer containing Brilliant Black, probenecid and Fluo-4 for 45 min at 37° C., as described above. After this period, the cells are challenged with histamine in the FLIPR™ as described above. The dose ratio at each time point is used to determine the fractional H1 receptor occupancy by the following equation: fractional receptor occupancy=(DR-1)/DR. The decrease in receptor occupancy over time approximates to a straight line and is analysed by linear regression. The slope of this straight line fit is used as an index of the dissociation rate of the antagonist. The dose ratios for antagonist treated cells and for antagonist treated and washed cells at each time point are used to calculate a relative dose ratio (rel DR) which is also used as an index of antagonist duration. Antagonists with long duration of action produce rel DR values close to 1, and antagonists with short duration of action produce rel DR values that approaches the dose ratio value obtained for antagonist treatment alone.

human H1 receptor [2] = target: T1, human H1 receptor; assay: Histamine H1 functional antagonist assay (FLIPR): determination of antagonist pA2; assay type: cell-based
Method: as §1, §2
The histamine H1 receptor expressing CHO cells are seeded into non-coated black-walled clear bottom 96-well tissue culture plates as described above. Following overnight culture, growth medium is removed from each well, washed with 200 μl phosphate buffered saline (PBS) and is replaced with 50 μl loading dye (250 μM Brilliant Black, 1 μM Fluo-4 diluted in Tyrodes buffer+probenecid (145 mM NaCl, 2.5 mM KCl, 10 mM HEPES, 10 mM D-glucose, 1.2 mM MgCl2, 1.5 mM CaCl2, 2.5 mM probenecid, pH adjusted to 7.40 with NaOH 1.0 M)). Cells are incubated for 45 min at 37° C. The loading buffer is removed and the cells are washed as above, and 90 μl of Tyrodes buffer+probenecid is added to each well. 10 μl of test compound, diluted to the required concentration in Tyrodes buffer+probenecid (or 10 μl Tyrodes buffer+probenecid as a control) is added to each well and the plate is incubated for 30 min at 37° C., 5% CO2. The plates are then placed into a FLIPR™ (Molecular Devices, UK) to monitor cell fluorescence (λex=488 nm, λEM=540 nm) in the manner described in Sullivan et al., (In: Lambert DG (ed.), Calcium Signaling Protocols, New Jersey: Humana Press, 1999, 125-136) before and after the addition of 50 μl histamine over a concentration range of 1 mM-0.1 nM. The resultant concentration response curves are analysed by non-linear regression using a standard four parameter logistic equation to determine the histamine EC50, the concentration of histamine required to produce a response of 50% of the maximum response to histamine. The antagonist pA2 is calculated using the following standard equation: pA2=log(DR-1)- log[B] where DR=dose ratio, defined as EC50antagonist-treated/EC50control and [B]=concentration of antagonist.

[3] = CNS penetration (intravenous bolus or infusion at steady state, blood and brain levels); assay type: in vivo, rat; conditions: male CD Sprague Dawley rats
Method: (i) CNS penetration by bolus administration
Compounds are dosed intravenously at a nominal dose level of 1 mg/kg to male CD Sprague Dawley rats. Compounds are formulated in 5% DMSO/45% PEG200/50% water. Blood samples are taken under terminal anaesthesia with isoflurane at 5 min post-dose and the brains are also removed for assessment of brain penetration. Blood samples are taken directly into heparinised tubes. Blood samples are prepared for analysis using protein precipitation and brain samples are prepared using extraction of drug from brain by homogenisation and subsequent protein precipitation. The concentration of parent drug in blood and brain extracts is determined by quantitative LC-MS/MS analysis using compound-specific mass transitions.
(ii) CNS penetration following intravenous infusion at steady state
A loading dose of the compounds is given to male CD Sprague Dawley rats at a nominal dose level of 0.4 mg/kg. The compounds are then infused intravenously for 4 h at a nominal dose level of 0.1 mg/kg/h. Compounds are formulated in 2% DMSO/30% PEG200/68% water. Serial or terminal blood samples are taken at 0.5, 1.5, 2.5, 3, 3.5 and 4 h post dose. The final blood sample is collected under terminal anaesthesia with isoflurane and the brains are also removed for assessment of brain penetration. Blood samples are taken directly into heparinised tubes. Blood samples are prepared for analysis using protein precipitation and brain samples are prepared using extraction of drug from brain by homogenisation and subsequent protein precipitation. The concentration of parent drug in blood and brain extracts is determined by quantitative LC-MS/MS analysis using compound-specific mass transitions.

human H1 receptor [4] = target: T1, human H1 receptor; assay: Histamine H1 functional antagonist assay (FLIPR): determination of functional pKi values; assay type: cell-based; conditions: CHO cells expressing human H1, histamine at EC80; read-out: average pKi (pKb) at H1 (converted)
Text: H1 receptor cell line generation and FLIPR assay protocol
1. Generation of histamine H1 cell line
as §1
Histamine H1 functional antagonist assay: Determination of functional pKi values […]
10 μl of test compound, diluted to the required concentration in Tyrodes buffer+probenecid (or 10 μl Tyrodes buffer+probenecid as a control) is added to each well and the plate is incubated for 30 min at 37° C., 5% CO2. The plates are then placed into a FLIPR™ (Molecular Devices, UK) to monitor cell fluorescence (λex=488 nm, αEM=540 nm) in the manner described in Sullivan et al., (In: Lambert DG (ed.), Calcium Signaling Protocols, New Jersey: Humana Press, 1999, 125-136) before and after the addition of 10 μl histamine at a concentration that results in the final assay concentration of histamine being EC80.
Functional antagonism is indicated by a suppression of histamine induced increase in fluorescence, as measured by the FLIPR™ system (Molecular Devices). By means of concentration effect curves, functional affinities are determined using standard pharmacological mathematical analysis.

[5] = CHO cells expressing human H1, histamine concentration response curves, read-out: average pA2 values at H1 (converted)

T1 sequence (P35367 whole entry): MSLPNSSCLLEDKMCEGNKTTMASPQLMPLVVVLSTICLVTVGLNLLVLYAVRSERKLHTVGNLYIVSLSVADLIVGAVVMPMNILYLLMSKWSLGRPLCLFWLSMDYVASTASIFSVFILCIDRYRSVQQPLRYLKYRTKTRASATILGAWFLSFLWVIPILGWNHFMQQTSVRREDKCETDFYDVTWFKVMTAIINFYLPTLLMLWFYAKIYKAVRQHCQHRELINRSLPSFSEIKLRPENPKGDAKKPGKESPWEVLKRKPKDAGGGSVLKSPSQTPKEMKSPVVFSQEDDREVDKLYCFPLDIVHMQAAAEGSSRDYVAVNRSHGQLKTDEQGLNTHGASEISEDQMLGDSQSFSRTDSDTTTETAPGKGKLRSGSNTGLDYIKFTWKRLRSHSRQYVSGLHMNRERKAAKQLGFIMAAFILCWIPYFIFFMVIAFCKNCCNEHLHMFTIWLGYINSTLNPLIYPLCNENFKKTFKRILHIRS

Row | Kb (human H1 receptor [2]; [5]) [µM] | SMILES | duration of action compared with azelastine in the histamine H1 functional antagonist assay (human H1 receptor [1]) | also measured
1 | – | O=C(NCCN1CCCC(n2nc(Cc3ccc(Cl)cc3)c3ccccc3c2=O)CC1)c1ccc2c(c1)CCN(C1CCC1)CC2 (stereo not shown) [Example 18, N-(2-{4-[4-[(4-Chlorophenyl)methyl]-1-oxo-2(1H)-phthalazinyl]hexahydro-1H-azepin-1-yl}ethyl)-3-cyclobutyl-2,3,4,5-tetrahydro-1H-3-benzazepine-7-carboxamide diformate salt] | longer duration of action than azelastine | Kb (human H1 receptor [2]): < 0.01 µM
2 | < 0.01 | O=c1c2ccccc2c(Cc2ccc(Cl)cc2)nn1C1CCCN(CCCc2ccc(OCCCN3CCCCCC3)cc2)CC1 (stereo not shown) [Example 12, 4-[(4-Chlorophenyl)methyl]-2-{1-[3-(4-{[3-(hexahydro-1H-azepin-1-yl)propyl]oxy}phenyl)propyl]hexahydro-1H-azepin-4-yl}-1(2H)-phthalazinone] | – | –
3 | < 0.001 | O=c1c2ccccc2c(Cc2ccc(Cl)cc2)nn1C[C@H]1CCCN1CCCCCc1ccc(OCCCN2CCCCCC2)cc1 [Example 6, 4-[(4-Chlorophenyl)methyl]-2-({(2R)-1-[5-(4-{[3-(hexahydro-1H-azepin-1-yl)propyl]oxy}phenyl)pentyl]-2-pyrrolidinyl}methyl)-1(2H)-phthalazinone] | – | –
4 | – | O=c1c2ccncc2c(Cc2ccc(Cl)cc2)nn1C[C@H]1CCCN1CCCCc1ccc(OCCCN2CCCCCC2)cc1 [Example 23, 4-[(4-Chlorophenyl)methyl]-2-({(2R)-1-[4-(4-{[3-(hexahydro-1H-azepin-1-yl)propyl]oxy}phenyl)butyl]-2-pyrrolidinyl}methyl)pyrido[3,4-d]pyridazin-1(2H)-one] | longer duration of action than azelastine | Kb (human H1 receptor [2]): < 0.001 µM
5 | < 0.01 | O=c1c2ccccc2c(Cc2ccc(O)cc2)nn1C[C@H]1CCCN1CCCCc1ccc(OCCCN2CCCCCC2)cc1 [Example 8, 2-({(2R)-1-[4-(4-{[3-(Hexahydro-1H-azepin-1-yl)propyl]oxy}phenyl)butyl]-2-pyrrolidinyl}methyl)-4-[(4-hydroxyphenyl)methyl]-1(2H)-phthalazinone] | longer duration of action than azelastine | –
6 | – | O=c1c2ccccc2c(Cc2ccc(Cl)cc2)nn1C1CCCN(CCCOc2ccc3c(c2)CCN(C2CCC2)CC3)CC1 (stereo not shown) [Example 16, 4-[(4-Chlorophenyl)methyl]-2-(1-{3-[(3-cyclobutyl-2,3,4,5-tetrahydro-1H-3-benzazepin-7-yl)oxy]propyl}hexahydro-1H-azepin-4-yl)-1(2H)-phthalazinone formate salt] | – | CNS penetration compared with azelastine [3]: comparable CNS penetration to azelastine
7 | < 0.01 | O=c1c2ccccc2c(Cc2ccc(Cl)cc2)nn1C1CCCN(CCc2ccc(OCCCN3CCCCCC3)cc2)CC1 (stereo not shown) [Example 11, 4-[(4-Chlorophenyl)methyl]-2-{1-[2-(4-{[3-(hexahydro-1H-azepin-1-yl)propyl]oxy}phenyl)ethyl]hexahydro-1H-azepin-4-yl}-1(2H)-phthalazinone] | – | –
8 | < 0.01 | O=c1c2ccccc2c(Cc2ccc(Cl)cc2)nn1C[C@H]1CCCN1CCCOc1ccc2c(c1)CCN(C1CCC1)CC2 [Example 15, 4-[(4-Chlorophenyl)methyl]-2-[((2R)-1-{3-[(3-cyclobutyl-2,3,4,5-tetrahydro-1H-3-benzazepin-7-yl)oxy]propyl}-2-pyrrolidinyl)methyl]-1(2H)-phthalazinone] | longer duration of action than azelastine | –
9 | < 0.001 | O=c1c2ccccc2c(Cc2ccc(F)cc2)nn1C[C@H]1CCCN1CCCCc1ccc(OCCCN2CCCCCC2)cc1 [Example 9, 4-[(4-Fluorophenyl)methyl]-2-({(2R)-1-[4-(4-{[3-(hexahydro-1H-azepin-1-yl)propyl]oxy}phenyl)butyl]-2-pyrrolidinyl}methyl)-1(2H)-phthalazinone] | longer duration of action than azelastine | –
10 | – | COc1ccc(Cc2nn(C[C@H]3CCCN3CCCCc3ccc(OCCCN4CCCCCC4)cc3)c(=O)c3ccccc23)cc1 [Example 7, 2-({(2R)-1-[4-(4-{[3-(Hexahydro-1H-azepin-1-yl)propyl]oxy}phenyl)butyl]-2-pyrrolidinyl}methyl)-4-{[4-(methyloxy)phenyl]methyl}-1(2H)-phthalazinone diformate] | longer duration of action than azelastine | Ki (human H1 receptor [4]): < 0.01 µM; Kb (human H1 receptor [2]): < 0.001 µM; CNS penetration compared with azelastine [3]: lower CNS penetration than azelastine
11 | < 0.01 | CN(CCCCc1ccc(OCCCN2CCCCCC2)cc1)CCn1nc(Cc2ccc(Cl)cc2)c2ccccc2c1=O [Example 3, 4-[(4-Chlorophenyl)methyl]-2-{2-[[4-(4-{[3-(hexahydro-1H-azepin-1-yl)propyl]oxy}phenyl)butyl](methyl)amino]ethyl}-1(2H)-phthalazinone] | – | –
